Test system: SKOV-3 cells
Assay: Annexin V / propidium iodide apoptosis assay by flow cytometry
Type: cell-based, human
Settings: for Apoptotic Cells (%) Mean, Day2 / Apoptotic Cells (%) Mean, Day3 / Apoptotic Cells (%) Mean, Day4: 1 μM, Q1 and Q2, mean of three experiments, * p < 0.01 vs untreated; for Apoptotic Cells (%) Mean, Day2 / percentage of apoptotic cells (Q1, Q2 quadrants), day 2: 2 days; for Apoptotic Cells (%) Mean, Day3 / percentage of apoptotic cells (Q1, Q2 quadrants), day 3: 3 days; for Apoptotic Cells (%) Mean, Day4 / percentage of apoptotic cells (Q1, Q2 quadrants), day 4: 4 days; for percentage of apoptotic cells (Q1, Q2 quadrants), day 2 / percentage of apoptotic cells (Q1, Q2 quadrants), day 3 / percentage of apoptotic cells (Q1, Q2 quadrants), day 4: 1 μΜ, 37 °C, representative experiment (Figure 5)
Excerpt: We next evaluate the abilities of Con-3 and Con-7 at concentrations of 1 μΜ to induce cell death by determining the percentages of live, apoptotic and necrotic cells after treatment of SKOV-3 cells with the GnRH conjugates. As shown in Figure 5 and Figures S1–S3 on day 2, the majority of SKOV-3 cells were viable (Q4 quadrant), treated either with Con-3, Con-7 or mitoxantrone, whereas the percentage of apoptotic cells (late or early apoptotic) (Q1, Q2 quadrants) was only 10.1%, 10.87% and 13.1% after treatment with Con-3, Con-7 or mitoxantrone, respectively. […] Cell viability further decreased on day 4 with a concomitant increase in apoptosis. Specifically, the percentage of apoptotic cells was 53.5%, 59.6% and 54.3% after treatment with Con-3, Con-7 or mitoxantrone (Figure 5 and Figures S7–S9). In all phases, the percentage of the necrotic and late apoptotic cells (Q3 quadrant) was very small.
Figure 5 Determination of viability, apoptosis, or necrosis of SKOV-3 cells after their treatment with 1 μM Con-3, Con-7, or mitoxantrone for 2, 3, and 4 days at 37 °C. At the end of the incubation the cells were further incubated in binding buffer supplied by Biotium, (CF488A Apoptosis Detection kit) and analyzed on a flow cytometer (excitation 488 nm), in the FITC channel (filter 530 nm) for detection of the Annexin V-positive cellsand in the propidium iodide, or PI, channel (filter 616 nm) for detection of the PI-positive cells. The figures are from a representative experiment performed three times with similar results. A higher resolution of the images in Figure 5 is provided in the Supplementary Material (Figures S1–S9). TEXT PRINTED IN THE PICTURE: Con-3: Q3: 4,19 (Day 2); Q2: 7,12 (Day 2); Q4: 85,7 (Day 2); Q1: 2,98 (Day 2); Q3: 5,31 (Day3); Q2: 19,5 (Day3); Q4: 58,0 (Day3); Q1: 17,1 (Day3); Q3: 3,54 (Day4); Q2: 17,1 (Day4); Q4: 43,0 (Day4); Q1: 36,4 (Day4) | Con-7: Q3: 6,31 (Day 2); Q2: 7,74 (Day 2); Q4: 82,8 (Day 2); Q1: 3,13 (Day 2); Q3: 8,11 (Day3); Q2: 19,8 (Day3); Q4: 56,8 (Day3); Q1: 15,3 (Day3); Q3: 3,48 (Day4); Q2: 19,7 (Day4); Q4: 36,9 (Day4); Q1: 39,9 (Day4) | Mitoxantrone: Q3: 6,49 (Day 2); Q2: 9,40 (Day 2); Q4: 80,4 (Day 2); Q1: 3,67 (Day 2); Q3: 7,13 (Day3); Q2: 18,9 (Day3); Q4: 61,0 (Day3); Q1: 13,1 (Day3); Q3: 2,72 (Day4); Q2: 17,3 (Day4); Q4: 43,0 (Decimal sign as read) (Day4); Q1: 37,0 (Day4) DOUBTS OF THE COPYIST ABOUT THIS PICTURE: All quadrant values: the print is very small, and the decimal sign may be a comma or a point in every value / Con-3, Day 2, Q4: 85,7 or 86,7 / Con-3, Day 2, Q1: 2,98 or 2,96 / Con-3, Day3, Q3: 5,31 or 6,31 / Con-3, Day3, Q2: 19,5 or 19,6 / Con-3, Day3, Q4: 58,0 or 56,0 / Con-3, Day4, Q3: 3,54 or 3,64 / Con-3, Day4, Q1: 36,4 or 38,4 / Con-7, Day 2, Q3: 6,31 or 8,31 / Con-7, Day 2, Q4: 82,8 or 82,6 / Con-7, Day 2, Q1: 3,13 or 3,15 / Con-7, Day3, Q3: 8,11 or 6,11 / Con-7, Day3, Q2: 19,8 or 19,6 / Con-7, Day3, Q4: 56,8 or 58,8 / Con-7, Day3, Q1: 15,3 or 15,8 / Con-7, Day4, Q3: 3,48 or 3,46 / Con-7, Day4, Q4: 36,9 or 38,9 / Con-7, Day4, Q1: 39,9 or 38,9 / Mitoxantrone, Day 2, Q3: 6,49 or 8,49 / Mitoxantrone, Day 2, Q2: 9,40 or 8,40 / Mitoxantrone, Day 2, Q4: 80,4 or 60,4 / Mitoxantrone, Day 2, Q1: 3,67 or 3,87 / Mitoxantrone, Day3, Q2: 18,9 or 16,9 / Mitoxantrone, Day3, Q4: 61,0 or 81,0 / Mitoxantrone, Day3, Q1: 13,1 or 15,1 […]
SKOV-3 cells were seeded into 12-well plates at a density of 50,000 cells/well and incubated overnight in DMEM/F12 (1:1) containing 3.15 g/L glucose and 10% BCS, at 37 °C and 5% CO2. At the end of the incubation, the culture medium was replaced with a fresh one containing 3.15 g/L glucose and 2% BCS, with or without GnRH analogs or mitoxantrone at a concentration of 1 μΜ, and the cells were further incubated at 37 °C and 5% CO2 for 2, 3 and 4 days. […]

| SMILES | Apoptotic Cells (%) Mean, Day2 | Apoptotic Cells (%) Mean, Day3 | Apoptotic Cells (%) Mean, Day4 | percentage of apoptotic cells (Q1, Q2 quadrants), day 2 [%] | percentage of apoptotic cells (Q1, Q2 quadrants), day 3 [%] | percentage of apoptotic cells (Q1, Q2 quadrants), day 4 [%] |
| --- | --- | --- | --- | --- | --- | --- |
| CCNC(=O)[C@@H]1CCCN1C(=O)[C@H](CCCNC(=N)N)NC(=O)[C@H](CC(C)C)NC(=O)[C@@H](CSSCCC(=O)OCCNCCNc1ccc(NCCNCCO)c2c1C(=O)c1c(O)ccc(O)c1C2=O)NC(=O)[C@H](Cc1ccc(O)cc1)NC(=O)[C@H](CO)NC(=O)[C@H](Cc1c[nH]c2ccccc12)NC(=O)[C@H](Cc1c[nH]cn1)NC(=O)[C@@H]1CCC(=O)N1 [Con-3] | 13.68 * % | 35.00 * % | 49.50 * % | 10.1 | 36.6 | 53.5 |
| O=C1c2c(O)ccc(O)c2C(=O)c2c(NCCNCCO)ccc(NCCNCCO)c21 [mitoxantrone] | 14.26 * % | 33.60 * % | 50.10 * % | 13.1 | 32 | 54.3 |
| CCNC(=O)[C@@H]1CCCN1C(=O)[C@H](CCCNC(=N)N)NC(=O)[C@H](CC(C)C)NC(=O)[C@@H](CCCCNC(=O)CCCCCNC(=O)CCSSCC(=O)OCCNCCNc1ccc(NCCNCCO)c2c1C(=O)c1c(O)ccc(O)c1C2=O)NC(=O)[C@H](Cc1ccc(O)cc1)NC(=O)[C@H](CO)NC(=O)[C@H](Cc1c[nH]c2ccccc12)NC(=O)[C@H](Cc1c[nH]cn1)NC(=O)[C@@H]1CCC(=O)N1 [Con-7] | 13.81 * % | 33.53 * % | 51.17 * % | 10.87 | 35.1 | 59.6 |

From article PMC11397358, “Cytotoxic Activity of Novel GnRH Analogs Conjugated with Mitoxantrone in Ovarian Cancer Cells” (Molecules, 2024)
